Each structure is given as a SMILES string. Bounds are passed on as bounds.

Test system in one data set: not given
Assay: not given
Details: not given
Usually melting point stands for the temperature of the solid-liquid transition. For `CCCc1cc(-c2cccc(C(C)C)c2)nc(C#N)n1` [Example 5a, 4-(3-Isopropyl-phenyl)-6-propyl-pyrimidine-2-carbonitrile], the melting point stood at 64 °C.

As to `CCCc1cc(-c2cc(C(F)(F)F)cc(C(F)(F)F)c2)nc(C#N)n1` [Example 6a, 4-(3,5-Bis-trifluoromethyl-phenyl)-6-propyl-pyrimidine-2-carbonitrile], the melting point was 112 °C.

The next data set concerns the target T1, recombinant human Cathepsin K (Homo sapiens, UniProt P43235).
T1 sequence (P43235 115-329): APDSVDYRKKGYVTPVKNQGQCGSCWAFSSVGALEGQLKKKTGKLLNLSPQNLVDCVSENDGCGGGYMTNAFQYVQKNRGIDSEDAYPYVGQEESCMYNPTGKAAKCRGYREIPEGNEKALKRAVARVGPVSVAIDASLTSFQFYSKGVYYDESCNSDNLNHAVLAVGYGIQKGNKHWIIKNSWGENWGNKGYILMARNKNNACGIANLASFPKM
The data set can be described thus: Cathepsin K activity: inhibition of recombinant human Cathepsin K, fluorogenic substrate Z-Phe-Arg-AMC. It counts as biochemical. The note with it: pH5.5, fluorescence at 10 minutes, read-out: pIC50 (negative logarithm of the IC50 concentration) for inhibition of human cathepsin K (converted). On the procedure:
To a 384 well microtitre plate is added 5 μl of a 100 μM solution of test compound in assay buffer (100 mM sodium acetate pH5.5, 5 mM EDTA, 5 mM dithiothreitol) with 10% dimethylsulfoxide (DMSO), plus 10 μl of 100 μM solution of the substrate Z-Phe-Arg-AMC (Bachem; 7-amido-coumarine derivative of the dipeptide N-benzyloxycarbonyl-Phe-Arg-OH) in assay buffer and 25 μl of assay buffer. 10 μl of a 1 mg/l solution of activated recombinant human cathepsin K, in assay buffer, is then added to the well, yielding a final inhibitor concentration of 10 μM.
Enzyme activity is determined by measuring the fluorescence of the liberated aminomethylcoumarin at […] using […] excitation, at 10 minutes. Percentage enzyme activity is calculated by comparison of this activity to that of a solution containing no inhibitor.
For the compound `N#Cc1nc(CCCN2CCN(c3ccccn3)CC2)cc(-c2cccc(C(F)(F)F)c2)n1` [4a′, 4-[3-(4-Pyridin-2-yl-piperazin-1-yl)-propyl]-6-(3-trifluoromethylphenyl)-pyrimidine-2-carbonitrile], the IC50 is under 10 nM.

For the compound `CCCc1nc(C#N)nc(-c2cccc(C(F)(F)F)c2)c1C` [Example 2, 5-Methyl-4-propyl-6-(3-trifluoromethylphenyl)-pyrimidine-2-carbonitrile], the IC50 was under 100 nM.

`N#Cc1nc(CCCN2CCCCC2)cc(-c2cccc(C(F)(F)F)c2)n1` [Example 4a, 4-(3-Piperidin-1-yl-propyl)-6-(3-trifluoromethylphenyl)-pyrimidine-2-carbonitrile]: the IC50 was under 10 nM.

`CN1CCN(CCCc2cc(-c3cccc(C(F)(F)F)c3)nc(C#N)n2)CC1` [Example 4d, 4-[3-(4-Methyl-piperazin-1-yl)-propyl]-6-(3-trifluoromethylphenyl)-pyrimidine-2-carbonitrile]: the IC50 was under 10 nM.

Take `N#Cc1nc(CCCNC2CCCCC2)cc(-c2cccc(C(F)(F)F)c2)n1` [Example 4e, 4-(3-Cyclohexylamino-propyl)-6-(3-trifluoromethylphenyl)-pyrimidine-2-carbonitrile]: the IC50 is under 10 nM.

In the case of `CC(C)NCCCc1cc(-c2cccc(C(F)(F)F)c2)nc(C#N)n1` [Example 4f, 4-(3-isopropylamino-propyl)-6-(3-trifluoromethylphenyl)-pyrimidine-2-carbonitrile], the IC50 is under 10 nM.

For the compound `CN(CCCc1cc(-c2cccc(C(F)(F)F)c2)nc(C#N)n1)Cc1ccccc1` [Example 4g, 4-[3-(Benzyl-methyl-amino)-propyl]-6-(3-trifluoromethylphenyl)-pyrimidine-2-carbonitrile], the IC50 is under 10 nM.

For the compound `CC(C)CNCCCc1cc(-c2cccc(C(F)(F)F)c2)nc(C#N)n1` [Example 4h, 4-(3-Isobutylamino-propyl)-6-(3-trifluoromethylphenyl)-pyrimidine-2-carbonitrile], the IC50 was under 100 nM.

As for `N#Cc1nc(CCCNCc2ccncc2)cc(-c2cccc(C(F)(F)F)c2)n1` [Example 4i, 4-{3-[(Pyridin-4-ylmethyl)-amino]-propyl}-6-(3-trifluoromethylphenyl)-pyrimidine-2-carbonitrile], the IC50 was under 10 nM.

On to `CCC(CC)NCCCc1cc(-c2cccc(C(F)(F)F)c2)nc(C#N)n1` [Example 4r, 4-[3-(1-Ethyl-propylamino)-propyl]-6-(3-trifluoromethylphenyl)-pyrimidine-2-carbonitrile], for which the IC50 is under 10 nM.

For the compound `CN1CCC(N(C)CCCc2cc(-c3cccc(C(F)(F)F)c3)nc(C#N)n2)CC1` [Example 4s, 4-{3-[Methyl-(1-methyl-piperidin-4-yl)-amino]-propyl}-6-(3-trifluoromethylphenyl)-pyrimidine-2-carbonitrile], the IC50 is under 10 nM.

For `CN1CCCN(CCCc2cc(-c3cccc(C(F)(F)F)c3)nc(C#N)n2)CC1` [Example 4u, 4-[3-(4-Methyl-[1,4]diazepan-1-yl)-propyl]-6-(3-trifluoromethylphenyl)-pyrimidine-2-carbonitrile], the IC50 was under 10 nM.

As to `CNC(=O)CNCCCc1cc(-c2cccc(C(F)(F)F)c2)nc(C#N)n1` [Example 8a, 4-[3-(Methylcarbamoylmethyl-amino)-propyl]-6-(3-trifluoromethylphenyl)-pyrimidine-2-carbonitrile], the IC50 is under 10 nM.

Turning to `CC(=O)NCCNCCCc1cc(-c2ccc(C)c(C)c2)nc(C#N)n1` [Example 14j, 4-[3-(2-Acetylamino-ethylamino)-propyl]-6-(3,4-dimethyl-phenyl)-pyrimidine-2-carbonitrile], the IC50 was under 10 nM.

Regarding `Cc1ccc(-c2cc(CCCNCCN3CCNC3=O)nc(C#N)n2)cc1C` [Example 14n, 4-(3,4-Dimethyl-phenyl)-6-{3-[2-(2-oxo-imidazolidin-1-yl)-ethylamino]-propyl}-pyrimidine-2-carbonitrile], the IC50 was under 10 nM.

Values taken from patent publication US7589095B2, “4-phenyl-pyrimidine-2-carbonitrile derivatives” (N.V. Organon, priority 2004, dated 2009).
